Assay results as given in patent publication US8784910B2, “Antimicrobial compositions” (Lonza Inc., priority 2002, dated 2014).

test system: S. aureus (ATCC #6538), P. aeruginosa (ATCC #9027), and E. coli (ATCC #8739); assay: Mixed bacterial challenge of preserved anionic protein shampoo (Examples 4 and 7); assay type: cell-based; conditions: 1.0% (1%) by weight in shampoo, Day 0, Table 3
Procedure: (§1) Each anionic shampoo sample in Table 3 below was tested as follows. A standardized mixed bacterial solution was prepared according to the following procedure. 3 agar stabs of S. aureus (ATCC #6538), P. aeruginosa (ATCC #9027), and E. coli (ATCC #8739) were separately incubated at about 35 EC for about 24 hours. Each stab was then washed with 3 mL of sterile 0.85% saline solution. The washes of the 3 stabs were pooled together to form an organism mixture. The absorbance of the organism mixture at 530 nm was adjusted to about 1.00 by adding saline. The spectrometer was calibrated with a saline blank. A 5 mL aliquot of the organism mixture was mixed together to produce the standardized mixed bacterial solution. Then, 40 g of each shampoo sample was inoculated with 0.2 mL of the standardized mixed bacterial solution and mixed. 1 g of the mixture was added to a sterile 20×150 mm screw cap test tube.
9 mL of sterile D/E neutralizer broth was added to the test tube and mixed to form a 10^−1 dilution. Serial dilutions were prepared through to a 10^−6 dilution with phosphate buffered water. The serial dilutions were plated onto Tryptic Soy Agar and incubated for 2 days at about 35 EC. Bacteria counts were performed after 0, 7, and 14 days.
(§2) The anionic protein shampoo composition was comprised of 35% by weight of sodium lauryl ether sulfate; 25% by weight of triethanolamine lauryl sulfate; 3% by weight coconut diethanolamide (cocamide DEA); 1% by weight of hydrolyzed collagen, available as Polypro 5000™ from Hormel Foods of Austin, Minn.; and 36% by weight of deionized water.
The cinnamaldehyde and other preservative containing samples were prepared by mixing the appropriate amounts of the preservatives and the aforementioned anionic protein shampoo composition and heating the mixture to about 50 EC for about 15 minutes.
Synergism for the cinnamaldehyde/Glydant 2000™ solutions in Table 8 against S. aureus, P. aeruginosa, and E. coli was calculated by the method described in C. E. Kull et al., A Mixtures of Quaternary Ammonium Compounds and Long-chain Fatty Acids as Antifungal Agents@, Applied Microbiology, 9:538-541 (1961). The synergism value (QA/Qa+QB/Qb) in Table 7 was determined. […] Qa is the concentration of cinnamaldehyde alone (in percent by weight) required to yield 100% retardation of the bacteria. QB is the concentration of Glydant 2000™ (in percent by weight) in the mixture, which yielded 100% retardation of the bacteria. Qb is the concentration of Glydant 2000™ alone (in percent by weight) required to yield 100% retardation of the bacteria.
When the value of (QA/Qa+QB/Qb) is less than one, the mixture is synergistic. Values for (QA/Qa+QB/Qb) of 1 and greater than 1, represent an additive effect and an antagonistic effect, respectively.

Compound	S. aureus, P. aeruginosa, and E. coli Day 0
OCc1ccccc1 [Benzyl Alcohol, reference compound]	3.0 × 10^7 cfu/g
CC(C)=CCCC(C)=CC=O [Citral]	3.0 × 10^7 cfu/g
C=CCc1ccc(O)c(OC)c1 [Eugenol]	3.0 × 10^7 cfu/g
CC(C)=CCC/C(C)=C/CO [Gerniol]	3.0 × 10^7 cfu/g
CC(C)=CCC/C(C)=C\CO [Nerol]	3.0 × 10^7 cfu/g
C=C(C)[C@H]1CC=C(C)CC1 [d-Limonene]	3.0 × 10^7 cfu/g

same assay, conditions: 1.0% (1%) by weight in shampoo, Day 7, Table 3

Compound	S. aureus, P. aeruginosa, and E. coli Day 7
OCc1ccccc1 [Benzyl Alcohol, reference compound]	5.0 × 10^6 cfu/g
CC(C)=CCCC(C)=CC=O [Citral]	3.0 × 10^7 cfu/g
C=CCc1ccc(O)c(OC)c1 [Eugenol]	3.0 × 10^7 cfu/g
CC(C)=CCC/C(C)=C/CO [Gerniol]	3.0 × 10^7 cfu/g
CC(C)=CCC/C(C)=C\CO [Nerol]	3.0 × 10^7 cfu/g
C=C(C)[C@H]1CC=C(C)CC1 [d-Limonene]	3.0 × 10^7 cfu/g

same assay, conditions: 1.0% (1%) by weight in shampoo, Day 14, Table 3

Compound	S. aureus, P. aeruginosa, and E. coli Day 14
OCc1ccccc1 [Benzyl Alcohol, reference compound]	5.3 × 10^6 cfu/g
CC(C)=CCCC(C)=CC=O [Citral]	3.0 × 10^7 cfu/g
C=CCc1ccc(O)c(OC)c1 [Eugenol]	3.0 × 10^7 cfu/g
CC(C)=CCC/C(C)=C/CO [Gerniol]	3.0 × 10^7 cfu/g
CC(C)=CCC/C(C)=C\CO [Nerol]	3.0 × 10^7 cfu/g
C=C(C)[C@H]1CC=C(C)CC1 [d-Limonene]	3.0 × 10^7 cfu/g

test system: S. aureus (ATCC #6538), P. aeruginosa (ATCC #9027), and E. coli (ATCC #8739); assay: Mixed bacterial challenge of preserved anionic protein shampoo, pH 6.5 (Example 3); assay type: cell-based; conditions: 0.45% w/w in shampoo, pH 6.5, Day 0
Procedure: as §1, with “FIGS. 1-3 were” for “Table 3 below was”
9 mL of sterile D/E neutralizer broth was added to the test tube and mixed to form a 10^−1 dilution. Serial dilutions were prepared through to a 10^−6 dilution with phosphate buffered water. The serial dilutions were plated onto Tryptic Soy Agar and incubated for 2 days at about 35 EC. […]
as §2
The antimicrobial composition containing samples were prepared by mixing the appropriate amounts of the antimicrobial ingredients and the aforementioned anionic protein shampoo composition and heating the mixture to about 50 EC for about 15 minutes.
The pH of the shampoo was adjusted to 6.5. […]

Compound	bacteria count Day 0
C/C=C/C=C/C(=O)[O-].[K+] [potassium sorbate]	1-3 × 10^6 cfu/g
O=C([O-])c1ccccc1.[Na+] [sodium benzoate]	1-3 × 10^6 cfu/g
O=C1O[C@H]([C@H](O)CO)C([O-])=C1O.[Na+] [sodium erythorbate]	1-3 × 10^6 cfu/g

same assay, conditions: 0.45% w/w in shampoo, pH 6.5, Day 7

Compound	bacteria count Day 7
C/C=C/C=C/C(=O)[O-].[K+] [potassium sorbate]	1 × 10^5 cfu/g
O=C([O-])c1ccccc1.[Na+] [sodium benzoate]	1 × 10^5 cfu/g
O=C1O[C@H]([C@H](O)CO)C([O-])=C1O.[Na+] [sodium erythorbate]	>3 × 10^6 cfu/g

same assay, conditions: 0.45% w/w in shampoo, pH 6.5, Day 14

Compound	bacteria count Day 14
C/C=C/C=C/C(=O)[O-].[K+] [potassium sorbate]	6 × 10^4 cfu/g
O=C([O-])c1ccccc1.[Na+] [sodium benzoate]	7 × 10^5 cfu/g
O=C1O[C@H]([C@H](O)CO)C([O-])=C1O.[Na+] [sodium erythorbate]	>3 × 10^6 cfu/g

same assay, conditions: 0.45% w/w in shampoo, pH 6.5, Day 28

Compound	bacteria count Day 28
O=C([O-])c1ccccc1.[Na+] [sodium benzoate]	<10 cfu/g
O=C1O[C@H]([C@H](O)CO)C([O-])=C1O.[Na+] [sodium erythorbate]	>3 × 10^6 cfu/g

test system: Candida albicans and Aspergillus niger; assay: Mixed fungal challenge of preserved anionic protein shampoo (Example 5); assay type: cell-based; conditions: 1.0% in shampoo, Day 0
Procedure: Each anionic shampoo sample in Table 4 below was tested as follows. A standard mixed […] solution was prepared according to the following procedure. 2 agar […] of Candida albicans and 4 agar […] of Aspergillus niger were separately incubated at about 25 EC for about 48 hours and 7 days, respectively. Each slant was washed with 3 mL of sterile 0.85% saline solution, collected and macerated in a tissue grinder. Sufficient amounts of 0.85% saline solution were added to each slant to obtain a visual count under a microscope with a Neubauer Hemocytometer of each innoculum of C. albicans and A. niger. Equal volumes of each standardized innoculum of C. albicans and A. niger were mixed together to form the standardized mixed fungal solution. 40 g of each shampoo sample was inoculated with 0.4 mL of the standardized mixed fungal solution and mixed. 1 g of the mixture was added to a sterile 20×150 mm screw cap test tube. 9 mL of sterile D/E neutralizer broth was added to the test tube and mixed to form a 10^-1 dilution. Serial dilutions were prepared through to a 10^-6 dilution with phosphate buffered water. The serial dilutions were plated onto Sabourand dextrose agar and incubated 5 days at about 25 EC. […] The anionic protein shampoo composition is described in Example 4. The shampoo samples were prepared by mixing the appropriate amounts of the preservatives and the anionic protein shampoo composition and heating the mixture to about 50 EC for about 15 minutes.

Compound	Fungal Plate Count Day 0
OCc1ccccc1 [Benzyl Alcohol, reference compound]	1.0 × 10^5 cfu/g

same assay, conditions: 1.0% in shampoo, Day 7

Compound	Fungal Plate Count Day 7
OCc1ccccc1 [Benzyl Alcohol, reference compound]	6.0 × 10^3 cfu/g

same assay, conditions: 1.0% in shampoo, Day 14

Compound	Fungal Plate Count Day 14
OCc1ccccc1 [Benzyl Alcohol, reference compound]	6.0 × 10^4 cfu/g

test system: Staphylococcus aureus (ATCC #6538); assay: Minimum Inhibitory Concentration (MIC), autodilutor, nutrient broth, 96 well plates (Example 8); assay type: cell-based; conditions: 72 hours at 32 degree Celsius, approximately 10^6 cfu/g, visual turbidity
Procedure: The Minimum Inhibitory Concentration (MIC) of the preservative mixtures was tested. The MIC is the lowest concentration of an ingredient that will inhibit the growth of an organism. This study was conducted using the Hamilton Micro Lab AT Plus Autodilutor Liquid handling System. The programs for the auto-dilutor were based on Lonza's Standard Application Method SAPM#412-01-1. The Hamilton Autodilutor was used to dilute the starting concentrations of the preservative combination by 50% using nutrient broth in 96 well micro titer plates and also to inoculate the microorganism in the test samples. This preservatives tested were Isocil™ (a blend of methyl isothiazolinone and methyl-chloro-isothiazolinone), Benzocil™ (benzisothiazolinone) and Lonzagard™ (benzethonium chloride), all of which are available from Lonza Inc. of Fair Lawn, N.J., in various concentrations and combinations with cinnamaldehyde. Controls were also included in each test plate. […] Results were determined by checking for growth in the test samples versus the control wells on each plate (visual determination of turbidity in the wells). […] Synergism values for the Isocil™/cinnamaldehyde and Benzocil™/cinnamaldehyde combinations were calculated from the MIC values reported in Table 11 by the method described in Kull, supra, referred to above, and are set forth in Tables 12 and 13, below.

Compound	MIC for S. Aureus
O=c1[nH]sc2ccccc12 [Benzocil ™, benzisothiazolinone]	9.375 ppm (active)
